We go through four compounds from patent US9067977B2, “Peptides derivatized with A-B-C-D- and their therapeutical use” (Novo Nordisk A/S, priority 2007, dated 2015).

For data set [1], the target named is T1, human serum albumin (HSA) (Homo sapiens, UniProt P02768). Description: in vitro. Conditions: pH 7.4.
Procedure: (§1) Streptavidin-SPA beads (GE Healthcare RPNQ0009) were incubated with biotinylated HSA for 5 hours. The beads were washed with buffer to remove unbound HSA. […] After 20 hours of gentle rocking at room temperature the plates were centrifuged and counted on a TopCounter.
Data set [2] has as its target T1, human serum albumin (HSA). The experiment in a line: Albumin binding affinity, competition scintillation proximity assay. The note with it: human, biotinylated human serum albumin on streptavidin-SPA beads, pH 7.4. (In a scintillation proximity assay essentially only radioactivity close to the scintillant gives light.)
Procedure: as §1

Starred links: 1 amine or outer side, 2 acyl side, 3 side chain; linkers in the order of their positions; H or OH if unused. Non-standard residues stand in square brackets, D forms with d. Residues, ends and D or L forms follow the SMILES beside them. Groups on a side chain read outwards from the residue. *: point of attachment. C20 diacid = O=C(O)CCCCCCCCCCCCCCCCCCC(=O)*; γGlu = O=C(O)[C@H](CCC(=O)[*:2])N[*:1]; AEEA = NCCOCCOCC(=O)O; Aib = CC(C)(N)C(=O)O; Inp = O=C(O)C1CCNCC1

T1 sequence (P02768 25-609): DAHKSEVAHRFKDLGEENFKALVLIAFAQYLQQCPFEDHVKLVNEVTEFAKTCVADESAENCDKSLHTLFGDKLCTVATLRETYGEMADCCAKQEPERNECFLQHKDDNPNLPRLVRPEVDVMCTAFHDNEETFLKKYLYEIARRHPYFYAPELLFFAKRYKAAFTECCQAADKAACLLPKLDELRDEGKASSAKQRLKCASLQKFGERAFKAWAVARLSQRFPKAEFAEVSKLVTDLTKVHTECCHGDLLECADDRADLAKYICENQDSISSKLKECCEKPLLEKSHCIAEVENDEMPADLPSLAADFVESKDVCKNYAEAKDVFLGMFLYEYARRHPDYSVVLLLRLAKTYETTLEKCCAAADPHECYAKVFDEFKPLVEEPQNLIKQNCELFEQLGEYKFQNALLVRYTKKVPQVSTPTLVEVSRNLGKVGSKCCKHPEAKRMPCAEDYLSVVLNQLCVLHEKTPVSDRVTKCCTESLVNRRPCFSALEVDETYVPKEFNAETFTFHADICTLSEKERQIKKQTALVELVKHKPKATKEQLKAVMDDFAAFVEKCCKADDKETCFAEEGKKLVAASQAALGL

As usually defined, the EC50 is the concentration at which the effect is half-maximal. The low end stands for greater potency, the high end for weaker potency. For `CC[C@H](C)[C@H](NC(=O)[C@H](Cc1ccccc1)NC(=O)[C@H](CCC(=O)O)NC(=O)[C@H](CCCCNC(=O)COCCOCCNC(=O)CC[C@H](NC(=O)CC[C@H](NC(=O)CCCCCCCCCCCNC(=O)CCCS(=O)(=O)NC(=O)CCCCCCCCCCCCCCCc1nnn[nH]1)C(=O)O)C(=O)O)NC(=O)[C@H](C)NC(=O)[C@H](C)NC(=O)[C@H](CCC(N)=O)NC(=O)CNC(=O)[C@H](CCC(=O)O)NC(=O)[C@H](CC(C)C)NC(=O)[C@H](Cc1ccc(O)cc1)NC(=O)[C@H](CO)NC(=O)[C@H](CO)NC(=O)[C@@H](NC(=O)[C@H](CC(=O)O)NC(=O)[C@H](CO)NC(=O)[C@@H](NC(=O)[C@H](Cc1ccccc1)NC(=O)[C@@H](NC(=O)CNC(=O)[C@H](CCC(=O)O)NC(=O)C(C)(C)NC(=O)[C@@H](N)Cc1c[nH]cn1)[C@@H](C)O)[C@@H](C)O)C(C)C)C(=O)N[C@@H](C)C(=O)N[C@@H](Cc1c[nH]c2ccccc12)C(=O)N[C@@H](CC(C)C)C(=O)N[C@H](C(=O)N[C@@H](CCCNC(=N)N)C(=O)NCC(=O)O)C(C)C` [Example 39, N-epsilon26-[2-(2-{2-[(S)-4-Carboxy-4-((S)-4-carboxy-4-{12-[4-(16-(1H-tetrazol-5-yl)hexadecanoylsulfamoyl)butyrylamino]dodecanoylamino}butyrylamino)butyrylamino]ethoxy}ethoxy)acetyl][Aib8,Arg34]GLP-1-(7-35)], in data set [1], the EC50 at 20 h lay in the range of 1 to 100 nM.
The same measure, in the same setting: the result for `CC[C@H](C)[C@H](NC(=O)[C@H](Cc1ccccc1)NC(=O)[C@H](CCC(=O)O)NC(=O)[C@H](CCCCNC(=O)COCCOCCNC(=O)CC[C@H](NC(=O)CC[C@H](NC(=O)CCCCCNC(=O)CCCS(=O)(=O)NC(=O)CCCCCCCCCCCCCCCc1nnn[nH]1)C(=O)O)C(=O)O)NC(=O)[C@H](C)NC(=O)[C@H](C)NC(=O)[C@H](CCC(N)=O)NC(=O)CNC(=O)[C@H](CCC(=O)O)NC(=O)[C@H](CC(C)C)NC(=O)[C@H](Cc1ccc(O)cc1)NC(=O)[C@H](CO)NC(=O)[C@H](CO)NC(=O)[C@@H](NC(=O)[C@H](CC(=O)O)NC(=O)[C@H](CO)NC(=O)[C@@H](NC(=O)[C@H](Cc1ccccc1)NC(=O)[C@@H](NC(=O)CNC(=O)[C@H](CCC(=O)O)NC(=O)C(C)(C)NC(=O)[C@@H](N)Cc1c[nH]cn1)[C@@H](C)O)[C@@H](C)O)C(C)C)C(=O)N[C@@H](C)C(=O)N[C@@H](Cc1c[nH]c2ccccc12)C(=O)N[C@@H](CC(C)C)C(=O)N[C@H](C(=O)N[C@@H](CCCNC(=N)N)C(=O)NCC(=O)O)C(C)C` [Example 40, N-epsilon26-[2-(2-{2-[(S)-4-Carboxy-4-((S)-4-carboxy-4-{6-[4-(16-(1H-tetrazol-5-yl)hexadecanoylsulfamoyl)butyrylamino]hexanoylamino}butyrylamino)butyrylamino]ethoxy}ethoxy)acetyl][Aib8,Arg34]GLP-1-(7-35)] reads 150 to 300 nM.
In data set [1], `CC[C@H](C)[C@H](NC(=O)[C@H](Cc1ccccc1)NC(=O)[C@H](CCC(=O)O)NC(=O)[C@H](CCCCNC(=O)COCCOCCNC(=O)CC[C@H](NC(=O)CC[C@H](NC(=O)CCCCCCCCCCCNC(=O)CCCS(=O)(=O)NC(=O)CCCCCCCCCCCCCCCc1nnn[nH]1)C(=O)O)C(=O)O)NC(=O)[C@H](C)NC(=O)[C@H](C)NC(=O)[C@H](CCC(N)=O)NC(=O)CNC(=O)[C@H](CCC(=O)O)NC(=O)[C@H](CC(C)C)NC(=O)[C@H](Cc1ccc(O)cc1)NC(=O)[C@H](CO)NC(=O)[C@H](CO)NC(=O)[C@@H](NC(=O)[C@H](CC(=O)O)NC(=O)[C@H](CO)NC(=O)[C@@H](NC(=O)[C@H](Cc1ccccc1)NC(=O)[C@@H](NC(=O)CNC(=O)[C@H](CCC(=O)O)NC(=O)C(C)(C)NC(=O)[C@@H](N)Cc1c[nH]cn1)[C@@H](C)O)[C@@H](C)O)C(C)C)C(=O)N[C@@H](C)C(=O)N[C@@H](Cc1c[nH]c2ccccc12)C(=O)N[C@@H](CC(C)C)C(=O)N[C@@H](CCCCN)C(=O)NCC(=O)O` [Example 43, N-epsilon26-[2-(2-{2-[(S)-4-Carboxy-4-((S)-4-carboxy-4-{12-[4-(16-(1H-tetrazol-5-yl)hexadecanoylsulfamoyl)butyrylamino]dodecanoylamino}butyrylamino)butyrylamino]ethoxy}ethoxy)acetyl][Aib8,Lys33,Arg34]GLP-1-(7-34)] returned a concentration for a half-maximal effect (EC50) of 1 to 100 nM.
`CC[C@H](C)[C@H](NC(=O)[C@H](Cc1ccccc1)NC(=O)[C@H](CCC(=O)O)NC(=O)[C@H](CCCNC(=N)N)NC(=O)[C@H](C)NC(=O)[C@H](C)NC(=O)[C@H](CCC(N)=O)NC(=O)C(C)(C)NC(=O)[C@H](CCC(=O)O)NC(=O)[C@H](CC(C)C)NC(=O)[C@H](Cc1ccc(O)cc1)NC(=O)[C@H](CCCCNC(=O)COCCOCCNC(=O)COCCOCCNC(=O)CC[C@H](NC(=O)C1CCN(C(=O)CCCCCCCCCCCCCCCCCCC(=O)O)CC1)C(=O)O)NC(=O)[C@H](CO)NC(=O)[C@@H](NC(=O)[C@H](CC(=O)O)NC(=O)[C@H](CO)NC(=O)[C@@H](NC(=O)[C@H](Cc1ccccc1)NC(=O)[C@@H](NC(=O)CNC(=O)[C@H](CCC(=O)O)NC(=O)C(C)(C)NC(=O)[C@@H](N)Cc1c[nH]cn1)[C@@H](C)O)[C@@H](C)O)C(C)C)C(=O)N[C@@H](C)C(=O)N[C@@H](Cc1c[nH]c2ccccc12)C(=O)N[C@@H](CC(C)C)C(=O)N[C@H](C(=O)N[C@@H](CCCNC(=N)N)C(=O)NC(C)(C)C(=O)N[C@@H](CCCNC(=N)N)C(=O)NCC(=O)O)C(C)C` [Example 70] (H-H[Aib]EGTFTSDVSK([AEEA-AEEA-γGlu-Inp-C20 diacid])YLE[Aib]QAAREFIAWLVR[Aib]RG-OH): in data set [2], the concentration giving a half-maximal response (EC50) at 20 h is 800 to 2000 nM.
